Laboratory results reported in patent publication US11419865B2, “Method for inducing a sustained immune response” (Cytocom Inc., priority 2016, dated 2022).

Legend:
IBS patients = assay: open-label study in forty-two IBS patients; type: in vivo, human
Protocol: Forty-two IBS patients participated in an open-label study. Participants received 0.5 mg PTI-901/day for 4 weeks and were evaluated during baseline, during treatment, and at 4-week follow-up. Patients recorded degree of abdominal pain, stool urgency, consistency, and frequency. Primary outcomes were number of pain-free days and overall symptom relief, evaluated by a global assessment score. Data were analyzed per protocol. Global assessment improved in 76% of 42 patients. During treatment, the mean weekly number of pain-free days increased from 0.5+/−1 to 1.25+/−2.14 (P=0.011).

[1] = system: advanced pancreatic cancer; conditions: cited from earlier work

| Compound | adverse reactions (IBS patients; 0.5 mg/day for 4 weeks) | patients with improved global assessment (IBS patients; 0.5 mg/day for 4 weeks, 42 patients) [%] | mean weekly number of pain-free days during treatment (IBS patients; 0.5 mg/day, baseline 0.5+/−1, P=0.011) [days] | Clinical benefit response, historical controls [1] [%] |
| --- | --- | --- | --- | --- |
| Cl.O=C1CC[C@@]2(O)[C@H]3Cc4ccc(O)c5c4[C@@]2(CCN3CC2CC2)[C@H]1O5 [PTI-901] | no significant adverse reactions | 76 | 1.25 ± 2.14 | – |
| Nc1ccn([C@@H]2O[C@H](CO)[C@@H](O)C2(F)F)c(=O)n1 [gemcitabine] | – | – | – | 23.8 |
| O=c1[nH]cc(F)c(=O)[nH]1 [5-fluorouracil (5-FU), 5-fluorouracil] | – | – | – | 4.8 |
